Key:
[1] = target: T1, recombinant human FLAP protein (Homo sapiens, UniProt P20292); test: FLAP binding assay (SPA, displacement of [125I]L-691,831); conditions: membranes of sf9 cells expressing recombinant human FLAP; [125I]L-691,831 probe; read-out: FLAP binding IC50
T1 construct: made in house; host or cells: Sf9 insect cells (100,000×g membrane pellet used)
T1 sequence (P20292 1-161): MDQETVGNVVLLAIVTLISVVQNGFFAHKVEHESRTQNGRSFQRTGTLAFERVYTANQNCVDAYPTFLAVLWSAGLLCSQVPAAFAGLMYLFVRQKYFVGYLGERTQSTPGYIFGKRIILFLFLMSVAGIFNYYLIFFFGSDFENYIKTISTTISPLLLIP
Method: Assessment of Biological Properties 1. Binding Assay
Compounds are assessed for the ability to bind to FLAP in a binding assay that measures compound-specific displacement of an iodinated (^125I) FLAP inhibitor via a Scintillation Proximity Assay format (adapted from S. Charleson et al., Mol. Pharmacol., 1992, 41, 873-879).
Cell pellets produced from sf9 insect cells expressing recombinant human FLAP protein are resuspended in buffer A [15 mM Tris-HCl (pH 7.5), 2 mM MgCl2, 0.3 mM EDTA, 1 mM PMSF]. The cells are lysed with a Dounce homogenizer and the material is centrifuged at 10,000×g for 10 minutes. The supernatant is then collected and centrifuged at 100,000×g for 60 minutes. To prepare membrane protein for an assay, an aliquot of the 100,000×g pellet is resuspended in 1 ml of buffer A, Dounce homogenized, and finally subjected to polytron mixing (30 seconds). Membrane protein (25 μl, 5 μg) is mixed with WGA SPA beads (Amersham) and stirred for 1 h. […] (final concentrations: beads, 200 μg/well; protein, 5 μg/well; [^125I] probe, 0 08 nM/well (17 nCi/well). The plates are shaken for 2 h before reading on a Microbeta plate reader. Non-specific binding is determined by the addition of 10 μM cold L-691,831 compound.

[2] = system: synthesis of LTB4 in human whole blood; test: Human whole blood assay (inhibition of LTB4 synthesis, calcimycin stimulated); assay type: cell-based; conditions: heparinized human whole blood, calcimycin 20 μM, plasma LTB4
Method: Compounds are additionally tested in a human whole blood assay to determine their ability to inhibit the synthesis of LTB4 in a cellular system. Compounds are combined with heparinized human whole blood and incubated for 15 minutes at 37° C. Calcimycin (20 μM final, prepared in phosphate-buffered saline, pH 7.4) is then added and the mixture is incubated for another 30 minutes at 37° C. The samples are centrifuged for 5 min at low speed (1500×g) and the plasma layer is removed. Plasma LTB4 concentrations are then measured using an antibody-based homogenous time-resolved fluorescence method (CisBio, Bedford, Mass.).

Row | IC50 [1] [nM] | IC50 [2] [nM] | Structure (SMILES)
1 | 9.8 | 96 | COC1CCN(c2nc(C(C)(c3ccc(-c4cnc(N)nc4)cc3)C(C)C)no2)CC1 (stereo not drawn) [Example 270, 5-(4-{1-[5-(4-Methoxy-piperidin-1-yl)-[1,2,4]oxadiazol-3-yl]-1,2-dimethyl-propyl}-phenyl)-pyrimidin-2-ylamine]
2 | 2.2 | 39 | CC(C)(O)Cn1cc(-c2nc([C@@](C)(c3ccc(-c4cnc(N)cn4)cc3)C3CC3)no2)cn1 [Example 175, 1-[4-(3-{(R)-1-[4-(5-Amino-pyrazin-2-yl)-phenyl]-1-cyclopropyl-ethyl}-[1,2,4]oxadiazol-5-yl)-pyrazol-1-yl]-2-methyl-propan-2-ol]
3 | 13 | 250 | CC(C)C(C)(c1ccc(-c2cnc(N)nc2)cc1)c1noc(N2CCC(S(C)(=O)=O)CC2)n1 (stereo not drawn) [Example 208, 5-(4-{1-[5-(4-Methanesulfonyl-piperidin-1-yl)-[1,2,4]oxadiazol-3-yl]-1,2-dimethyl-propyl}-phenyl)-pyrimidin-2-ylamine]
4 | 130 | 920 | CC(C)C(C)(c1ccc(-c2cnc(N)nc2)cc1)c1noc(N2CCC(N(C)C)CC2)n1 (stereo not drawn) [Example 218]
5 | 4.6 | 260 | CC(C)C(C)(c1ccc(-c2cnc(N)nc2)cc1)c1noc(-c2c[nH]cn2)n1 (stereo not drawn) [Example 126, 5-(4-{2-[5-(1H-imidazol-4-yl)-1,2,4-oxadiazol-3-yl]-3-methylbutan-2-yl}phenyl)pyrimidin-2-amine]
6 | 12 | 230 | CN(C)C(=O)Cn1cc(-c2nc(C(C)(c3ccc(-c4ccc(N)nc4C#N)cc3)C3CC3)no2)cn1 (stereo not drawn) [Example 296]
7 | 130 | > 5000 | CC(C)C(C)(c1ccc(-c2cnc(N)nc2)cc1)c1noc(C2(C(=O)O)CC2)n1 (stereo not drawn) [Example 95, 1-(3-{2-[4-(2-aminopyrimidin-5-yl)phenyl]-3-methylbutan-2-yl}-1,2,4-oxadiazol-5-yl)cyclopropanecarboxylic acid]
8 | 16 | 920 | C[C@](c1ccc(-c2ccc(N)nc2)cc1)(c1noc(N2CCC(O)CC2)n1)C1CC1 [Example 283, 1-(3-{(S)-1-[4-(6-Amino-pyridin-3-yl)-phenyl]-1-cyclopropyl-ethyl}-[1,2,4]oxadiazol-5-yl)-piperidin-4-ol]
9 | 16 | 350 | CC(C)C(C)(c1ccc(-c2cnc(N)nc2)cc1)c1noc(CC(C)(C)O)n1 (stereo not drawn) [Example 225, 1-(3-{1-[4-(2-Amino-pyrimidin-5-yl)-phenyl]-1,2-dimethyl-propyl}-[1,2,4]oxadiazol-5-yl)-2-methyl-propan-2-ol]
10 | 120 | 1700 | CC(C)C(C)(c1ccc(-c2cnc(N)nc2)cc1)c1noc(C(=O)N2CCNCC2)n1 (stereo not drawn) [Example 84, (3-{2-[4-(2-aminopyrimidin-5-yl)phenyl]-3-methylbutan-2-yl}-1,2,4-oxadiazol-5-yl)(piperazin-1-yl)methanone]
11 | 99 | 550 | COCCOCc1nc(C(C)(c2ccc(-c3cnc(N)nc3)cc2)C(C)C)no1 (stereo not drawn) [Example 229, 5-(4-{1-[5-(2-Methoxy-ethoxymethyl)-[1,2,4]oxadiazol-3-yl]-1,2-dimethyl-propyl}-phenyl)-pyrimidin-2-ylamine]
12 | 46 | 1500 | CC(C)C(C)(c1ccc(-c2cnc(N)nc2)cc1)c1noc(C2CCN(C(=O)OC(C)(C)C)CC2)n1 (stereo not drawn) [Example 109, 4-(3-{1-[4-(2-Amino-pyrimidin-5-yl)-phenyl]-1,2-dimethyl-propyl}-1,2,4-oxadiazol-5-yl)-piperidine-1-carboxylic acid tert-butyl ester]
13 | 39 | > 5000 | CC(C)C(C)(c1ccc(-c2cnc(N)nc2)cc1)c1noc(N2CCC(C(=O)O)CC2)n1 (stereo not drawn) [Example 219, 1-(3-{1-[4-(2-Amino-pyrimidin-5-yl)-phenyl]-1,2-dimethyl-propyl}-[1,2,4]oxadiazol-5-yl)-piperidine-4-carboxylic acid]
14 | 37 | 370 | COCCc1nc(C(C)(c2ccc(-c3cnc(N)nc3)cc2)C(C)C)no1 (stereo not drawn) [Example 232, 5-(4-{1-[5-(2-Methoxy-ethyl)-[1,2,4]oxadiazol-3-yl]-1,2-dimethyl-propyl}-phenyl)-pyrimidin-2-ylamine]
15 | 25 | 270 | Cc1nc(N)ccc1-c1ccc(C(C)(c2noc(-c3cnn(CC(=O)N(C)C)c3)n2)C2CC2)cc1 (stereo not drawn) [Example 244, 2-[4-(3-{1-[4-(6-Amino-2-methyl-pyridin-3-yl)-phenyl]-1-cyclopropyl-ethyl}-[1,2,4]oxadiazol-5-yl)-pyrazol-1-yl]-N,N-dimethyl-acetamide]
16 | 4.3 |  | COc1ncccc1-c1nc(C(C)(c2ccc(-c3cnc(N)nc3)cc2)C(C)C)no1 (stereo not drawn) [Example 10, 5-(4-{2-[5-(2-methoxypyridin-3-yl)-1,2,4-oxadiazol-3-yl]-3-methylbutan-2-yl}phenyl)pyrimidin-2-amine]
17 | 4.4 |  | CC(C)C(C)(c1ccc(-c2cnc(N)nc2)cc1)c1noc(-c2nccs2)n1 (stereo not drawn) [Example 139, 5-(4-{3-methyl-2-[5-(1,3-thiazol-2-yl)-1,2,4-oxadiazol-3-yl]butan-2-yl}phenyl)pyrimidin-2-amine]
18 | 57 |  | COc1cncc(-c2ccc(C(C)(c3noc(-c4cnccn4)n3)C(C)C)cc2)c1 (stereo not drawn) [Example 1, 2-(3-{2-[4-(5-methoxypyridin-3-yl)phenyl]-3-methylbutan-2-yl}-1,2,4-oxadiazol-5-yl)pyrazine]
19 | 8.7 |  | Cc1csc(-c2nc(C(C)(c3ccc(-c4cnc(N)nc4)cc3)C(C)C)no2)n1 (stereo not drawn) [Example 131, 5-(4-{3-methyl-2-[5-(4-methyl-1,3-thiazol-2-yl)-1,2,4-oxadiazol-3-yl]butan-2-yl}phenyl)pyrimidin-2-amine]
20 | 3.3 |  | CC(C)C(C)(c1ccc(-c2cnc(N)nc2)cc1)c1noc(-c2cnc(=O)[nH]c2)n1 (stereo not drawn) [Example 154, 5-(3-{2-[4-(2-aminopyrimidin-5-yl)phenyl]-3-methylbutan-2-yl}-1,2,4-oxadiazol-5-yl)pyrimidin-2(1H)-one]
21 |  | 68 | CC(c1ccc(-c2cnc(N)nc2)cc1)(c1noc(N2CCC(O)CC2)n1)C1CC1 (stereo not drawn) [Example 205, 1-(3-{1-[4-(2-Amino-pyrimidin-5-yl)-phenyl]-1-cyclopropyl-ethyl}-[1,2,4]oxadiazol-5-yl)-piperidin-4-ol]
22 |  | 84 | CC(C)C(C)(c1ccc(-c2cnc(N)nc2)cc1)c1noc(N2CCC(O)CC2)n1 (stereo not drawn) [Example 262, 1-(3-{1-[4-(2-Amino-pyrimidin-5-yl)-phenyl]-1,2-dimethyl-propyl}-[1,2,4]oxadiazol-5-yl)-piperidin-4-ol]
23 |  | 550 | CC(C)[C@@](C)(c1ccc(-c2cnc(N)nc2)cc1)c1noc(N2CCC(C)(O)CC2)n1 [Example 228, 1-(3-{(S)-1-[4-(2-Amino-pyrimidin-5-yl)-phenyl]-1,2-dimethyl-propyl}-[1,2,4]oxadiazol-5-yl)-4-methyl-piperidin-4-ol]
24 |  | 34 | CC(C)C(C)(c1ccc(-c2cnc(N)nc2)cc1)c1noc(N2CCC(C)(O)CC2)n1 (stereo not drawn) [Example 216, 1-(3-{1-[4-(2-Amino-pyrimidin-5-yl)-phenyl]-1,2-dimethyl-propyl}-[1,2,4]oxadiazol-5-yl)-4-methyl-piperidin-4-ol]
25 | 58 |  | CC(C)C(C)(c1ccc(-c2cnc(N)nc2)cc1)c1noc(-c2ccccc2S(C)(=O)=O)n1 (stereo not drawn) [Example 149, 5-[4-(3-methyl-2-{5-[2-(methylsulfonyl)phenyl]-1,2,4-oxadiazol-3-yl}butan-2-yl)phenyl]pyrimidin-2-amine]
26 |  | 1000 | C[C@](c1ccc(-c2cnc(N)nc2)cc1)(c1noc(N2CCC(O)CC2)n1)C1CC1 [Example 234, 1-(3-{(S)-1-[4-(2-Amino-pyrimidin-5-yl)-phenyl]-1-cyclopropyl-ethyl}-[1,2,4]oxadiazol-5-yl)-piperidin-4-ol]
27 | 15 |  | CC(C)C(C)(c1ccc(-c2cnc(N)nc2)cc1)c1noc(C2CC2)n1 (stereo not drawn) [Example 156, 5-{4-[2-(5-cyclopropyl-1,2,4-oxadiazol-3-yl)-3-methylbutan-2-yl]phenyl}pyrimidin-2-amine]
28 |  | 760 | CC(C)[C@@](C)(c1ccc(-c2cnc(N)nc2)cc1)c1noc(N2CCC(O)CC2)n1 (single isomer, unassigned) [Example 224]

Row | Structure (SMILES) | IC50 [1] [nM] | IC50 [2] [nM]
29 | CN(C)C(=O)Cn1cc(-c2nc([C@@](C)(c3ccc(-c4cnc(N)cn4)cc3)C3CC3)no2)cn1 [Example 176, 2-[4-(3-{(R)-1-[4-(5-Amino-pyrazin-2-yl)-phenyl]-1-cyclopropyl-ethyl}-[1,2,4]oxadiazol-5-yl)pyrazol-1-yl]-N,N-dimethyl-acetamide] | 1.2 | 73
